17 molecules from PubChem BioAssay (NCI) can be followed below.

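Grown in 96-well plates, cells were treated for 48 hours with each compound at five concentrations. Insufficient inhibition: endpoint recorded as highest concentration tested. TGI is the concentration that stops growth completely.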

Experiment in all cases: inhibition of tumour cell growth, NCI panel, 48 h
Assay [1] concerns UACC-62 melanoma.
Assay [2] concerns ACHN renal.
Assay [3] relates to MDA-N.
For assay [4], the system named is HOP-92 NSCLC.
In assay [5] the test system is MDA-MB-435.
Assay [6] relates to HS 578T breast.
The test system of assay [7] is K-562 leukemia.
Assay [8] relates to MDA-MB-231 breast.
Assay [9] relates to MCF7 breast.
The subject of assay [10] is SNB-75 CNS.
Assay [11] relates to SK-MEL-5 melanoma.
Assay [12] deals with SK-MEL-28 melanoma.
Assay [13] deals with RXF 393 renal.
Assay [14] has as its system IGROV1 ovarian.
Assay [15] concerns NCI-H460 lung.
The subject of assay [16] is SW-620 colon.
The test system of assay [17] is NCI-H226 lung.
Assay [18] deals with HL-60(TB) leukemia.

In the case of `O=C(Nc1ccc(N2C(=O)CSC2c2cccs2)cc1)c1ccc(N2C(=O)CSC2c2cccs2)cc1` (centres undefined), the TGI in assay [1], in assay [2], in [3], in assay [4], in assay [5] and in assay [6] was more than 100 µM each time. Also, the TGI in assay [7], in [8], in [9], in [10], in assay [11] and in assay [12] was more than 100 µM each time. Further, the TGI in [13], in assay [14], in [15] and in assay [16] was more than 100 µM throughout.

Regarding `COC1CC(n2ccc(=O)[nH]c2=O)OC1CO` (centres undefined), the TGI in [1], in assay [2], in assay [3], in [4], in [5] and in [7] was more than 100 µM each time. Moreover, the TGI in [8], in assay [9], in assay [11], in assay [12], in [13] and in [14] was more than 100 µM in each case. In addition, the TGI in assay [15], in [16] and in assay [17] was more than 100 µM each time.

Turning to `COC(=O)c1cn(CCCCO)nn1`, the TGI in [1], in assay [2], in assay [3], in assay [4], in assay [5] and in [6] was more than 100 µM in each case. For the same molecule, the TGI in assay [8], in [9], in assay [10], in [11], in assay [12] and in assay [13] was more than 100 µM throughout. Besides, the TGI in assay [14], in assay [15], in assay [16] and in [17] was more than 100 µM throughout.

In the case of `Cc1cc(S(=O)(=O)Nc2nc(N)nc(N(C)C)n2)c(SC(C(=O)O)c2ccccc2)cc1Cl` (centres undefined), the TGI in [2], in assay [3], in [4], in [6], in assay [7] and in assay [9] was more than 10 µM each time. Besides, the TGI in assay [10], in assay [11], in assay [12], in assay [13], in [14] and in assay [18] was more than 10 µM in each case. For the same molecule, the TGI in assay [15], in assay [16] and in [17] was more than 10 µM each time.

In the case of `N#Cc1nc(NC(=O)c2ccccc2)sc1N`, the TGI in [1], in assay [2], in assay [3], in assay [4], in [5] and in assay [7] was more than 10 µM throughout. Further, the TGI in assay [8], in assay [9], in assay [10], in assay [11], in assay [12] and in assay [13] was more than 10 µM throughout. In addition, the TGI in assay [14], in assay [18], in [15], in [16] and in assay [17] was more than 10 µM throughout.

For the molecule `CC(C(=O)N1C(=O)N(C(=O)[C@H](C)C(O)c2ccccc2)[C@H](c2ccccc2)[C@H]1c1ccccc1)[C@@H](O)c1ccccc1` (some centres undefined), the TGI in assay [1] is 51.1 µM; in assay [2], more than 100 µM; in [3], 60.7 µM; in assay [4] it was 83.3 µM; in assay [5], 54.3 µM; in assay [7] it was more than 100 µM. The TGI is 48.9 µM in assay [8]; more than 100 µM in assay [9]; more than 100 µM in [10]; 28.1 µM in [11]; more than 100 µM in assay [12]; 64.9 µM in [14]. Moreover, the TGI is more than 100 µM in [18], 78.1 µM in [15], more than 100 µM in [16] and more than 100 µM in assay [17].

Turning to `COc1cc(S(=O)(=O)Nc2ccc(-c3csc(/N=C\C=C\c4ccccc4)n3)cc2)ccc1Cl`, the TGI in assay [1] was more than 100 µM; in assay [2] it was more than 100 µM; in assay [3], more than 100 µM; in assay [4], 75.9 µM; in assay [5], more than 100 µM; in [6], more than 100 µM. Besides, the TGI in [7] was more than 100 µM; in [9], more than 100 µM; in assay [10], more than 100 µM; in assay [11], more than 100 µM; in [12] it was more than 100 µM; in assay [13], 80.2 µM. In addition, the TGI was more than 100 µM in assay [14]; more than 100 µM in assay [18]; more than 100 µM in assay [15]; more than 100 µM in [16]; 57.7 µM in assay [17].

As for `O=C1Cc2c(-c3ccccc3)cc(-c3ccc4ccccc4c3)nc2-c2ccccc2N1`, the TGI in assay [1] is more than 100 µM; in [2], more than 100 µM; in [3], more than 100 µM; in assay [4], more than 100 µM; in assay [5], more than 100 µM; in [6], 7.77 µM. Besides, the TGI is 9.41 µM in assay [7]; 69.6 µM in assay [8]; more than 100 µM in assay [9]; 5.38 µM in assay [10]; more than 100 µM in assay [11]; more than 100 µM in assay [12]. The TGI in [13] is 13.1 µM; in [14], 11.9 µM; in assay [15], 87.6 µM; in [16], more than 100 µM; in [17], more than 100 µM.

For `COc1cc(/C=C2/C(=O)N=C(NC(C)=O)N2C)ccc1OC(C)=O`, the TGI in [1], in assay [2], in assay [3], in assay [4], in assay [5] and in assay [8] was more than 100 µM each time. Moreover, the TGI in assay [9], in assay [10], in assay [11], in [12], in assay [14] and in assay [18] was more than 100 µM throughout. Also, the TGI in [15], in assay [16] and in assay [17] was more than 100 µM in each case.

`CC(=O)OC(C#N)CC(C)(C)/[N+]([O-])=[N+](\[O-])C(C)(C)CC(C#N)OC(C)=O` (centres undefined): the TGI in assay [1] came out at 32.2 µM; in assay [2] it was 24.5 µM; in assay [3], 30.3 µM; in assay [4], 27 µM; in assay [5], 33.8 µM; in [6], 55.2 µM. The TGI in [7] is 26.2 µM; in assay [8], 36.1 µM; in assay [9] it was more than 100 µM; in assay [10], 63.8 µM; in assay [11] it was 33.9 µM; in [12], 96.4 µM. Also, the TGI worked out at 27.4 µM in [13]; 24 µM in assay [14]; 35 µM in assay [15]; 30.2 µM in assay [16]; 55.3 µM in [17].

On to `Cc1ccc(C(=O)c2[nH]c(Nc3ccc(Cl)cc3)c(C(=S)Nc3ccccc3)c2N)cc1`, for which the TGI in assay [1] is 28.1 µM; in [2], 10.7 µM; in assay [3], 20.6 µM; in [4], 28 µM; in assay [5], 19.7 µM; in [7], 24 µM. The TGI in assay [8] came to 24.2 µM; in assay [9] it was 33.6 µM; in assay [10] it was 7.14 µM; in assay [12], 14.5 µM; in assay [13] it was 17.4 µM; in assay [14], 15 µM. Besides, the TGI in assay [18] is more than 100 µM; in assay [15] it was 15.4 µM; in assay [16], 37.7 µM; in assay [17], 43.4 µM.

In the case of `Cc1ccc(Nc2cc(=O)[nH]c(=O)[nH]2)cc1CS`, the TGI in [1], in [2], in assay [3], in assay [4], in [5] and in assay [6] was more than 100 µM in each case. Also, the TGI in [7], in assay [8], in [10], in assay [11], in assay [12] and in assay [13] was more than 100 µM in each case. In addition, the TGI in assay [14], in assay [15], in assay [16] and in assay [17] was more than 100 µM in each case.

For `C=CCN(c1cc(OCc2ccccc2)c2c(c1)c(C)cn2S(=O)(=O)c1ccccc1)S(C)(=O)=O`, the TGI in assay [1], in assay [2], in assay [3], in assay [4], in assay [5] and in assay [6] was more than 100 µM each time. In addition, the TGI in assay [7], in [8], in assay [10], in assay [11], in assay [12] and in [13] was more than 100 µM in each case. For the same molecule, the TGI in assay [14], in assay [18], in assay [15], in assay [16] and in assay [17] was more than 100 µM throughout.

On to `COc1ccc(/C(Cl)=C(\CNc2ccccn2)c2ccccc2)cc1OC`, for which the TGI in assay [1], in assay [2], in assay [3], in [4], in assay [5] and in assay [6] was more than 100 µM in each case. The TGI in [7], in [8], in assay [10], in [11], in assay [12] and in [13] was more than 100 µM in each case. Also, the TGI in assay [14], in assay [18], in assay [15], in [16] and in assay [17] was more than 100 µM throughout.

For the molecule `Cc1ccc(Cc2nn(C)c(=O)n2-n2cccc2)cc1`, the TGI in assay [1], in assay [2], in [3], in [5], in assay [6] and in assay [7] was more than 100 µM in each case. Moreover, the TGI in assay [8], in [9], in [10], in [11], in assay [12] and in assay [13] was more than 100 µM each time. The TGI in assay [14], in assay [15], in [16] and in assay [17] was more than 100 µM in each case.

As for `O=C1c2ccccc2-n2c1nc1cc(Cl)ccc1c2=O`, the TGI was 32.1 µM in assay [1]; more than 100 µM in assay [2]; 29.1 µM in [3]; more than 100 µM in assay [4]; 4.23 µM in assay [5]; more than 100 µM in assay [6]. Moreover, the TGI in assay [7] was more than 100 µM; in [8] it was more than 100 µM; in [9], more than 100 µM; in assay [10], more than 100 µM; in assay [11], 76.4 µM; in assay [13], more than 100 µM. The TGI in assay [14], in assay [15] and in [17] was more than 100 µM in each case.

Regarding `Cc1ccc(S(=O)(=O)c2ccsc2NC(=O)c2ccccc2)cc1`, the TGI was more than 100 µM in assay [1]; more than 79.7 µM in assay [2]; more than 100 µM in assay [3]; more than 100 µM in [4]; more than 100 µM in assay [5]; 76.2 µM in assay [6]. Besides, the TGI was more than 21.8 µM in [7]; more than 79.4 µM in [8]; more than 100 µM in assay [9]; more than 93.3 µM in [10]; more than 100 µM in [11]; more than 100 µM in assay [12]. For the same molecule, the TGI in [14], in [15], in assay [16] and in assay [17] was more than 100 µM throughout.
